Earlier results on one compound are cited in paper PMC9851200, “Multiparameter phenotypic screening for endogenous TFEB and TFE3 translocation identifies novel chemical series modulating lysosome function” (Autophagy, 2022).

Design in all cases: method as in original PKIS2 published data
Data set [1] deals with kinases (KINOMEscan panel) (Homo sapiens, UniProt P17612). As to conditions: kinase PRKACA; Published KINOMEscan; ref original PKIS2 published data; cited from earlier work.
Data set [2] addresses kinases (KINOMEscan panel) (Homo sapiens, UniProt P31751). As to conditions: Published KINOMEscan; ref original PKIS2 published data; cited from earlier work.
Data set [3] addresses kinases (KINOMEscan panel) (Homo sapiens, UniProt Q13523). As to conditions: PRPF4B; Published KINOMEscan; ref original PKIS2 published data; cited from earlier work.
In data set [4] the target is kinases (KINOMEscan panel) (Homo sapiens, UniProt Q9H2X6). As to conditions: Published KINOMEscan; ref original PKIS2 published data; cited from earlier work.
In data set [5] the target is T1, kinases (KINOMEscan panel) (Homo sapiens, UniProt Q9NRP7).
T1 sequence (Q9NRP7 1-1315): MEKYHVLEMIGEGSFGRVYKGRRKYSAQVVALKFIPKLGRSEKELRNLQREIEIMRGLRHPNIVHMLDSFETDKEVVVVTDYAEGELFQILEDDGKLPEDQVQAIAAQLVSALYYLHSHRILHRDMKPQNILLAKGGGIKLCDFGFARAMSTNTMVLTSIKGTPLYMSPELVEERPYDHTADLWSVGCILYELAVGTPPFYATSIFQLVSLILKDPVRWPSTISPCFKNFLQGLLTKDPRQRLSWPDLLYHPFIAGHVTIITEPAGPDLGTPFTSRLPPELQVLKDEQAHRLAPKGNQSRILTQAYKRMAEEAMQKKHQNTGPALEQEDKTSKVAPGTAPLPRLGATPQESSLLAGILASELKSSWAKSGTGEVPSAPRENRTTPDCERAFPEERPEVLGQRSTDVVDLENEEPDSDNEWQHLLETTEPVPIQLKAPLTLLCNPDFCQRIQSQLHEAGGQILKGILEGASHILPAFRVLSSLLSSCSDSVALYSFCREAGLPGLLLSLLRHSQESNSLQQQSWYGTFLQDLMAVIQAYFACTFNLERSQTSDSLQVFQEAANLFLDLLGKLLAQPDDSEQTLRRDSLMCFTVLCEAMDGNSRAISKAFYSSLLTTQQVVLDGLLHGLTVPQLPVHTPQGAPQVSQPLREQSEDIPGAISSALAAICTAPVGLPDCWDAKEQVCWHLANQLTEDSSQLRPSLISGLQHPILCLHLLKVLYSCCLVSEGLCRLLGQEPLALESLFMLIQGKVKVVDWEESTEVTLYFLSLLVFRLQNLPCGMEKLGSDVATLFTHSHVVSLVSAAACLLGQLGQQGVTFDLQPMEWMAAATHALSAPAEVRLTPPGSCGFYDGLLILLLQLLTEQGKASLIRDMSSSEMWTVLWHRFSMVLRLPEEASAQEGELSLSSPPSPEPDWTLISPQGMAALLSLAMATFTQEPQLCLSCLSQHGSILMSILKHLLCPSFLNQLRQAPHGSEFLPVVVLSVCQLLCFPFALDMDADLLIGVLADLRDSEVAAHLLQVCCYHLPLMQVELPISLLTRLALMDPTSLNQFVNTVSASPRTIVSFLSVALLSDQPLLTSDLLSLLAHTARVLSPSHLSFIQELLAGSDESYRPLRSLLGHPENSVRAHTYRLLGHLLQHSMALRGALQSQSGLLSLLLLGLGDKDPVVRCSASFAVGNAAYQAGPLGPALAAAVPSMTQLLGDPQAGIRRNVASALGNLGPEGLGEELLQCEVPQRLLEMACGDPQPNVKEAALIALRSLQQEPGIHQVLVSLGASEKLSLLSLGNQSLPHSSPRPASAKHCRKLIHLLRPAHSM
As to conditions: STK36; Published KINOMEscan; ref original PKIS2 published data; cited from earlier work.

Data set [6] deals with T2, kinases (KINOMEscan panel) (Homo sapiens, UniProt Q9UL54).
T2 sequence (Q9UL54 1-1235): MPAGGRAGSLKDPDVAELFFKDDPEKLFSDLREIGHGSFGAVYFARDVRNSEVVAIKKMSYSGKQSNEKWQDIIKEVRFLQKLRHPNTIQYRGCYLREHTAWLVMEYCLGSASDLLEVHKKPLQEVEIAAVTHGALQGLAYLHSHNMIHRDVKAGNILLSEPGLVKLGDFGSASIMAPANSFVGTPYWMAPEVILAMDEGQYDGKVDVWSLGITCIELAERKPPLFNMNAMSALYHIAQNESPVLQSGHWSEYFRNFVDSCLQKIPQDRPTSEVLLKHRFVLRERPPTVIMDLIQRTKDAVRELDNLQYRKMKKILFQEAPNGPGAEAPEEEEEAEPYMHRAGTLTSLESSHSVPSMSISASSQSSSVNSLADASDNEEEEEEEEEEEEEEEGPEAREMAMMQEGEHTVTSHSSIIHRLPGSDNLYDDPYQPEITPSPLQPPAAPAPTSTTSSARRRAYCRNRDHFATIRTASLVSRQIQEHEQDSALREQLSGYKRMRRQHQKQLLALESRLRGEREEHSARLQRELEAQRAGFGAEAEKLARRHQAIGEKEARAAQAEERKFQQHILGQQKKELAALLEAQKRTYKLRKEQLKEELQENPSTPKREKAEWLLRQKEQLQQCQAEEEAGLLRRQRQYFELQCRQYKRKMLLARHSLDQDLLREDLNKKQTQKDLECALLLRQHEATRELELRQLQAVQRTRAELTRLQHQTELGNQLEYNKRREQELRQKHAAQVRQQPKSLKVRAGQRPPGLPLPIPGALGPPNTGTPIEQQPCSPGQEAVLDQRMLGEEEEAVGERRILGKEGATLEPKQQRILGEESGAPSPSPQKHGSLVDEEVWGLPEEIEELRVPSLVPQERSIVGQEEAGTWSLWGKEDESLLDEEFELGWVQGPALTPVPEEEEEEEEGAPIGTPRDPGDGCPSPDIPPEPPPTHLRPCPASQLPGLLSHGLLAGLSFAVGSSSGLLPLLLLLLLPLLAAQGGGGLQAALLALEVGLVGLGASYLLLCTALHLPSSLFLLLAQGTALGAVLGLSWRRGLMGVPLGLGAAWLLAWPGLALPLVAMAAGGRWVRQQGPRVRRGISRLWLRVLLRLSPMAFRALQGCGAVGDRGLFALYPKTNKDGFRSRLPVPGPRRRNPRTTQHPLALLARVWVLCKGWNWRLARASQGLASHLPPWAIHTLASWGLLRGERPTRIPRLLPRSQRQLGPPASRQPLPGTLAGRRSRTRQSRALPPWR
As to conditions: kinase TAOK2; Published KINOMEscan; ref original PKIS2 published data; cited from earlier work.

kinases (KINOMEscan panel) (Homo sapiens, UniProt P31751), sequence (P31751 whole entry): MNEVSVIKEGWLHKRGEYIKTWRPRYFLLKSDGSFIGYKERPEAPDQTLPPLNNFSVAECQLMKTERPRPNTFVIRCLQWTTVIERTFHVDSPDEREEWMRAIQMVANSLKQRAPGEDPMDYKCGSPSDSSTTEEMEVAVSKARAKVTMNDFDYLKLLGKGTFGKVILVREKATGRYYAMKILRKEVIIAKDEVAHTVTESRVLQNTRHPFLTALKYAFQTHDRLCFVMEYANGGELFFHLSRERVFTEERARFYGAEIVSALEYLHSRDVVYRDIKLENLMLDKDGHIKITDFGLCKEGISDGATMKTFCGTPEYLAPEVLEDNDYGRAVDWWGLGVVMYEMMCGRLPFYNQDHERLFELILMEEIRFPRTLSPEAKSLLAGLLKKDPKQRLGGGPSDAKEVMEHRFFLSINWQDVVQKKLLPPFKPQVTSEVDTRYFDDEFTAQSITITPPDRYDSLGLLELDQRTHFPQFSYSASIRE
kinases (KINOMEscan panel) (Homo sapiens, UniProt Q13523), sequence (Q13523 whole entry): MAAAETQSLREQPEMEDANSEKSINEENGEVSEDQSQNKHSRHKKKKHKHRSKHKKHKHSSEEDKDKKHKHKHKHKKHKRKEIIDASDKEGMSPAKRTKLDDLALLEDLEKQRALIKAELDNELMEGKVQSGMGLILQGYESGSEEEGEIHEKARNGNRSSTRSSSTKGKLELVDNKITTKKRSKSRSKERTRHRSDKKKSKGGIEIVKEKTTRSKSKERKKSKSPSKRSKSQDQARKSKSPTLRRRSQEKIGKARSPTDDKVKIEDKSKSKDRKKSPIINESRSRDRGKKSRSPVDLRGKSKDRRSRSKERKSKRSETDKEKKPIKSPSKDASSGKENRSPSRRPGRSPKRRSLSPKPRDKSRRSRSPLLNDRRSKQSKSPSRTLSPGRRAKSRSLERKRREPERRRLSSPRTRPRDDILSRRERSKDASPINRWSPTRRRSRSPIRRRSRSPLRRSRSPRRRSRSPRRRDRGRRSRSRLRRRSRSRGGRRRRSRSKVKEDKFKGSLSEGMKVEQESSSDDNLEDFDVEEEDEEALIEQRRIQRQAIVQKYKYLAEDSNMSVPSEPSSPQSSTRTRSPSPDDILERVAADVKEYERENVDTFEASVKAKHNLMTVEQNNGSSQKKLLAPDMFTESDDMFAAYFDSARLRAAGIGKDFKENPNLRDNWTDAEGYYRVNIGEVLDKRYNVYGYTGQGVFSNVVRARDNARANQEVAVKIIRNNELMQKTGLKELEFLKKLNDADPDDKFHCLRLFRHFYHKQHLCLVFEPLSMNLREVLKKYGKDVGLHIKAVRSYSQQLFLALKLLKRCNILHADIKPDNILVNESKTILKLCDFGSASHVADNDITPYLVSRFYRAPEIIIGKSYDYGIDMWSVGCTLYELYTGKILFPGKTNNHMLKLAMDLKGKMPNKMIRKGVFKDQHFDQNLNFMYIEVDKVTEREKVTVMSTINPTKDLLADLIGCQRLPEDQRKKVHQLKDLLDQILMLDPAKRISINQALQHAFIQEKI
kinases (KINOMEscan panel) (Homo sapiens, UniProt Q9H2X6), sequence (Q9H2X6 whole entry): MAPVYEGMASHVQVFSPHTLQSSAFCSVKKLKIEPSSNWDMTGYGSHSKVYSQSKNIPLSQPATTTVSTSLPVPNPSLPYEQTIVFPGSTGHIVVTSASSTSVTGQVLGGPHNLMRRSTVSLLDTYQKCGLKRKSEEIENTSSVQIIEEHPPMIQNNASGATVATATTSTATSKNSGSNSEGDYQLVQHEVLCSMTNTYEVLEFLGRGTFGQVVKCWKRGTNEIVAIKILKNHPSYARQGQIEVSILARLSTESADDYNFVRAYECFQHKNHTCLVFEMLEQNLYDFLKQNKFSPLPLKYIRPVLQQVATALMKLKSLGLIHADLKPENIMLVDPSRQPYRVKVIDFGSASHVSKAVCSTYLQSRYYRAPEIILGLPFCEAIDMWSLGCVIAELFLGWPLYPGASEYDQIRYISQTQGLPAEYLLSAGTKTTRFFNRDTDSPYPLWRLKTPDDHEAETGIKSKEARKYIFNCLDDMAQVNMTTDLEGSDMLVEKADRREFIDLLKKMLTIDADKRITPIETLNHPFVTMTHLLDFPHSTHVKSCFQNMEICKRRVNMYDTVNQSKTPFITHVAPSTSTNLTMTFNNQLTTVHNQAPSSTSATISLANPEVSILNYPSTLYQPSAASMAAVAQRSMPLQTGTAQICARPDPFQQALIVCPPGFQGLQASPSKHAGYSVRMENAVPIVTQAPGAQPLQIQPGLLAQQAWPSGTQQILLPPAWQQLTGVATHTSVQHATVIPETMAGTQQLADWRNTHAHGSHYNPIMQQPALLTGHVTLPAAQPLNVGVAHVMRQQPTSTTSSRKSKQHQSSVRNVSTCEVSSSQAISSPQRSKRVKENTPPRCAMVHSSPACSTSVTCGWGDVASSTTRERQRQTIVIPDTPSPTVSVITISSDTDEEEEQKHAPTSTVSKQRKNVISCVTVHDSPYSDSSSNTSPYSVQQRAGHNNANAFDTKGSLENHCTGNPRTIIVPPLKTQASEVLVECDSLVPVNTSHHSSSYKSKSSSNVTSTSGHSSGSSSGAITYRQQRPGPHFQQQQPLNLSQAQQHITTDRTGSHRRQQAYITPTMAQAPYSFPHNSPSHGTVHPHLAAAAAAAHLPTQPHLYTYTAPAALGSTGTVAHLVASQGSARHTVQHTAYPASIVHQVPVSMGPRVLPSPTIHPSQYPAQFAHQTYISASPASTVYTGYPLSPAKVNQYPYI

For the compound `Cc1cccc(-c2nc(Nc3ccncc3)c3ccccc3n2)n1` [NK215], in data set [1], the “KINOMEscan PRKACA” value is on record as 23. The “KINOMEscan AKT2” value in data set [2] was 0. Moreover, the “KINOMEscan PRPF4B” value in data set [3] is 17. In addition, the “KINOMEscan HIPK2” value in data set [4] is listed as 0. Besides, the “KINOMEscan STK36” value in data set [5] is 5. Moreover, the “KINOMEscan TAOK2” value in data set [6] is on record as 17.
